Experimental data as given in ChEMBL document CHEMBL1130125, “beta-Methylation of the Phe7 and Trp9 melanotropin side chain pharmacophores affects ligand-receptor interactions and prolonged biological activity” (J Med Chem, 1997).

Columns and labels:
[1] = Decrease in lizard skin reflectivity ([…] activity).; assay type: functional
[2] = molecular target: frog skin melanocortin receptor (Rana pipiens); assay: Decrease in frog skin reflectivity ([…] activity).
[3] = test system: frog skin melanocortin receptor (Rana pipiens); assay: Relative potency compared to alpha MSH in a frog skin bioassay.
[4] = test system: lizard; assay: Relative potency compared to alpha MSH in a lizard skin bioassay.; assay type: functional

| SMILES | EC50 [1] [nM] | EC50 [2] [nM] | Relative potency [3] | Relative potency [4] |
| --- | --- | --- | --- | --- |
| CCCC[C@H](NC(C)=O)C(=O)N[C@H]1CC(=O)NCCCC[C@@H](C(N)=O)NC(=O)[C@H]([C@@H](C)c2c[nH]c3ccccc23)NC(=O)[C@H](CCCN=C(N)N)NC(=O)[C@@H](Cc2ccccc2)NC(=O)[C@H](Cc2c[nH]cn2)NC1=O | 1 | – | – | – |
| CCCC[C@H](NC(=O)[C@H](CO)NC(=O)[C@H](Cc1ccc(O)cc1)NC(=O)[C@H](CO)NC(C)=O)C(=O)N[C@@H](CCC(=O)O)C(=O)N[C@@H](Cc1c[nH]cn1)C(=O)N[C@@H](C(=O)N[C@@H](CCCN=C(N)N)C(=O)N[C@@H](Cc1c[nH]c2ccccc12)C(=O)NCC(=O)N[C@@H](CCCCN)C(=O)N1CCC[C@H]1C(=O)N[C@H](C(N)=O)C(C)C)[C@@H](C)c1ccccc1 (stereo in doubt; 16) | 0.5 | – | – | – |
| CCCC[C@H](NC(C)=O)C(=O)N[C@H]1CC(=O)NCCCCC(C(N)=O)NC(=O)[C@H](Cc2c[nH]c3ccccc23)NC(=O)[C@H](CCCN=C(N)N)NC(=O)[C@@H]([C@H](C)c2ccccc2)NC(=O)[C@H](Cc2c[nH]cn2)NC1=O (single isomer, unassigned; 5) [listing 1 of 2 here] | 0.2 | 6.25 | – | – |
| CCCC[C@H](NC(C)=O)C(=O)N[C@H]1CC(=O)NCCCCC(C(N)=O)NC(=O)[C@H](Cc2c[nH]c3ccccc23)NC(=O)[C@H](CCCN=C(N)N)NC(=O)[C@@H]([C@H](C)c2ccccc2)NC(=O)[C@H](Cc2c[nH]cn2)NC1=O (single isomer, unassigned; 5) [listing 2 of 2 here] | – | – | 0.016 | 5 |
| CCCC[C@H](NC(C)=O)C(=O)N[C@H]1CC(=O)NCCCCC(C(N)=O)NC(=O)C([C@H](C)c2c[nH]c3ccccc23)NC(=O)[C@H](CCCN=C(N)N)NC(=O)C(Cc2ccccc2)NC(=O)[C@H](Cc2c[nH]cn2)NC1=O (single isomer, unassigned; 11) [listing 1 of 2 here] | 1 | 0.33 | – | – |
| CCCC[C@H](NC(C)=O)C(=O)N[C@H]1CC(=O)NCCCCC(C(N)=O)NC(=O)[C@H](Cc2c[nH]c3ccccc23)NC(=O)[C@H](CCCN=C(N)N)NC(=O)[C@@H]([C@@H](C)c2ccccc2)NC(=O)[C@H](Cc2c[nH]cn2)NC1=O (single isomer, unassigned) | 0.3 | 2 | 0.05 | 3.3 |
| CCCC[C@H](NC(=O)[C@H](CO)NC(=O)[C@H](Cc1ccc(O)cc1)NC(=O)[C@H](CO)NC(C)=O)C(=O)N[C@@H](CCC(=O)O)C(=O)N[C@@H](Cc1c[nH]cn1)C(=O)N[C@H](C(=O)N[C@@H](CCCN=C(N)N)C(=O)N[C@@H](Cc1c[nH]c2ccccc12)C(=O)NCC(=O)N[C@@H](CCCCN)C(=O)N1CCC[C@H]1C(=O)N[C@H](C(N)=O)C(C)C)[C@H](C)c1ccccc1 | 1 | – | – | – |
| CCCC[C@H](NC(C)=O)C(=O)N[C@H]1CC(=O)NCCCC[C@@H](C(N)=O)NC(=O)[C@@H]2Cc3c([nH]c4ccccc34)CN2C(=O)[C@H](CCCNC(=N)N)NC(=O)[C@@H](Cc2ccccc2)NC(=O)[C@H](Cc2cnc[nH]2)NC1=O | 20 | 3.33 | – | – |
| CCCC[C@H](NC(C)=O)C(=O)N[C@H]1CC(=O)NCCCC[C@@H](C(N)=O)NC(=O)[C@H]2Cc3c([nH]c4ccccc34)CN2C(=O)[C@H](CCCNC(=N)N)NC(=O)[C@@H](Cc2ccccc2)NC(=O)[C@H](Cc2cnc[nH]2)NC1=O | 11.1 | 1 | – | – |
| CCCC[C@H](NC(C)=O)C(=O)N[C@H]1CC(=O)NCCCCC(C(N)=O)NC(=O)C([C@H](C)c2c[nH]c3ccccc23)NC(=O)[C@H](CCCN=C(N)N)NC(=O)C(Cc2ccccc2)NC(=O)[C@H](Cc2c[nH]cn2)NC1=O (single isomer, unassigned; 11) [listing 2 of 2 here] | – | – | 0.3 | 1 |
| CCCC[C@H](NC(=O)[C@H](CO)NC(=O)[C@H](Cc1ccc(O)cc1)NC(=O)[C@H](CO)NC(C)=O)C(=O)N[C@@H](CCC(=O)O)C(=O)N[C@@H](Cc1c[nH]cn1)C(=O)N[C@@H](C(=O)N[C@@H](CCCN=C(N)N)C(=O)N[C@@H](Cc1c[nH]c2ccccc12)C(=O)NCC(=O)N[C@@H](CCCCN)C(=O)N1CCC[C@H]1C(=O)N[C@H](C(N)=O)C(C)C)[C@@H](C)c1ccccc1 (stereo in doubt; 17) | 1 | – | – | – |
| CCCC[C@H](NC(C)=O)C(=O)N[C@H]1CC(=O)NCCCCC(C(N)=O)NC(=O)[C@H](Cc2c[nH]c3ccccc23)NC(=O)[C@H](CCCN=C(N)N)NC(=O)C([C@@H](C)c2ccccc2)NC(=O)[C@H](Cc2c[nH]cn2)NC1=O (single isomer, unassigned) | 3.44 | 6.25 | 0.016 | 0.29 |
| CCCC[C@H](NC(C)=O)C(=O)N[C@H]1CC(=O)NCCCCC(C(N)=O)NC(=O)[C@H](Cc2c[nH]c3ccccc23)NC(=O)[C@H](CCCN=C(N)N)NC(=O)[C@@H]([C@H](C)c2ccccc2)NC(=O)[C@H](Cc2c[nH]cn2)NC1=O (single isomer, unassigned; 7) [listing 1 of 2 here] | 20 | 16.7 | – | – |
| CCCC[C@H](NC(C)=O)C(=O)N[C@H]1CC(=O)NCCCC[C@H](C(N)=O)NC(=O)[C@H]([C@@H](C)c2c[nH]c3ccccc23)NC(=O)[C@H](CCCN=C(N)N)NC(=O)[C@@H](Cc2ccccc2)NC(=O)[C@H](Cc2c[nH]cn2)NC1=O | – | – | 0.23 | 1 |
| CCCC[C@H](NC(C)=O)C(=O)N[C@H]1CC(=O)NCCCCC(C(N)=O)NC(=O)C([C@H](C)c2c[nH]c3ccccc23)NC(=O)[C@H](CCCN=C(N)N)NC(=O)C(Cc2ccccc2)NC(=O)[C@H](Cc2c[nH]cn2)NC1=O (single isomer, unassigned; 10) [listing 1 of 2 here] | 1.43 | 0.06 | – | – |
| CCCC[C@H](NC(=O)[C@H](CO)NC(=O)[C@H](Cc1ccc(O)cc1)NC(=O)[C@H](CO)NC(C)=O)C(=O)N[C@@H](CCC(=O)O)C(=O)N[C@@H](Cc1c[nH]cn1)C(=O)N[C@H](C(=O)N[C@@H](CCCN=C(N)N)C(=O)N[C@@H](Cc1c[nH]c2ccccc12)C(=O)NCC(=O)N[C@@H](CCCCN)C(=O)N1CCC[C@H]1C(=O)N[C@H](C(N)=O)C(C)C)[C@@H](C)c1ccccc1 | 3.33 | – | – | – |
| CCCC[C@H](NC(C)=O)C(=O)N[C@H]1CC(=O)NCCCCC(C(N)=O)NC(=O)C([C@H](C)c2c[nH]c3ccccc23)NC(=O)[C@H](CCCN=C(N)N)NC(=O)C(Cc2ccccc2)NC(=O)[C@H](Cc2c[nH]cn2)NC1=O (single isomer, unassigned; 10) [listing 2 of 2 here] | – | – | 1.6 | 0.7 |
| CCCC[C@H](NC(C)=O)C(=O)N[C@H]1CC(=O)NCCCCC(C(N)=O)NC(=O)[C@H](Cc2c[nH]c3ccccc23)NC(=O)[C@H](CCCN=C(N)N)NC(=O)[C@@H]([C@H](C)c2ccccc2)NC(=O)[C@H](Cc2c[nH]cn2)NC1=O (single isomer, unassigned; 7) [listing 2 of 2 here] | – | – | 0.006 | 0.05 |
| CCCC[C@H](NC(C)=O)C(=O)N[C@H]1CC(=O)NCCCCC(C(N)=O)NC(=O)[C@H]([C@H](C)c2c[nH]c3ccccc23)NC(=O)[C@H](CCCN=C(N)N)NC(=O)C(Cc2ccccc2)NC(=O)[C@H](Cc2c[nH]cn2)NC1=O (single isomer, unassigned) | 6.67 | – | 0.004 | 0.15 |
